Test results taken from US11787810B2, “Diacylglyceride O-acyltransferase 2 inhibitors” (Merck Sharp & Dohme Corp., priority 2020, dated 2023).

Target: human DGAT2 (hDGAT2) (Homo sapiens (Human), UniProt Q96PD7)
Test: DGAT2 enzymatic activity assay (13C18-triolein formation, LC/MS/MS)
Type: biochemical
Conditions: hDGAT2 Sf-9 membrane prep, 25 μM diolein, 5 μM 13C oleoyl-CoA; read-out: Human DGAT2 IC50
Protocol: Sf-9 insect cells were maintained in Grace's insect cell culture medium with 10% heated-inactivated fetal bovine serum, 1% Pluronic F-68 and 0.14 μg/ml Kanamycine sulfate at 27° C. in a shaker incubator. After infection with untagged baculovirus expressing human DGAT2 (hDGAT2) at multiplicity of infection (MOI) 3 for 48 hours, cells were harvested. Cell pellets were suspended in buffer containing 10 mM Tris-HCl pH 7.5, 1 mM EDTA, 250 mM sucrose and Complete Protease Inhibitor Cocktail (Sigma Aldrich), and sonicated on ice. Cell debris were removed by centrifugation at 2000×g for 15 minutes. Membrane fractions were isolated by ultracentrifugation (100,000×g), resuspended in the same buffer, and frozen (−80° C.) for later use. The protein concentration was determined with the Pierce™ BCA Protein Assay Kit (Thermo Fisher Scientific). Expression of protein levels was analyzed by immunoblotting with rabbit anti-DGAT2 antibody (Abcam, ab102831) and donkey anti-rabbit IgG H&L Alexa Fluor® 647 (Abcam, ab150075) followed by detection using Typhoon FLA9000 (GE Healthcare).
LC/MS/MS analyses were performed using Thermal Fisher's LX4-TSQ Vantage system. This system consists of an Agilent binary high-performance liquid chromatography (HPLC) pumps and a TSQ Vantage triple quadrupole MS/MS instrument. For each sample, 2 μL samples from the top organic layer of in-plate liquid-liquid extraction were injected onto a Thermo Betabasic C4 column (2.1 mm×20 mm, 5 μm particle size). The samples were then eluted using the following conditions; mobile phase: Isopropanol:acetonitrile/10 mM ammonium formate=50/35/15 (v/v/v), flow rate: 0.8 mL/min, temperature: 25° C. Data was acquired in positive mode using a heated electrospray ionization (HESI) interface. The operational parameters for the TSQ Vantage MS/MS instrument were a spray voltage of 3000 V, capillary temperature of 280° C., vaporizer temperature 400° C., sheath gas 45 arbitrary unit, Aux gas 10 arbitrary units, S-lens 165 and collision gas 1.0 mTorr. […] (SRM) chromatograms of ^13C18-triolein (Q1: 920.8>Q3:621.3) and internal standard ^13C21-triolein (Q1: 923.8>Q3:617.3) were collected for 33 sec. The peak area was integrated by Xcalibur Quan software. The ratio between the ^13C18triolein generated in the reaction and spiked in internal standard ^13C21-triolein was used to generate percentage inhibition and IC50 values. Compound percentage inhibition was calculated by the following formula: Inhibition %=1-[(compound response−low control)/(high control−low control)]×100%. Potent compounds were titrated and IC50 were calculated by 4 parameter sigmoidal curve fitting formula.
DGAT2 activity was determined by measuring the amount of enzymatic product ^13C18-triolein (^13C-1,2,3-Tri(cis-9-octadecenoyl)glycerol) using the membrane prep mentioned above. The assay was carried out in ABgene 384-well assay plates in a final volume of 25 μL at rt. The assay mixture contained the following: assay buffer (100 mM Tris·Cl, pH 7.0, 20 mM MgCl2, 5% ethanol), 25 μM of diolein, 5 μM of ^13C oleoyl-CoA and 8 ng/μL of DGAT2 membrane.

Sequence of human DGAT2 (hDGAT2) (Q96PD7 whole entry): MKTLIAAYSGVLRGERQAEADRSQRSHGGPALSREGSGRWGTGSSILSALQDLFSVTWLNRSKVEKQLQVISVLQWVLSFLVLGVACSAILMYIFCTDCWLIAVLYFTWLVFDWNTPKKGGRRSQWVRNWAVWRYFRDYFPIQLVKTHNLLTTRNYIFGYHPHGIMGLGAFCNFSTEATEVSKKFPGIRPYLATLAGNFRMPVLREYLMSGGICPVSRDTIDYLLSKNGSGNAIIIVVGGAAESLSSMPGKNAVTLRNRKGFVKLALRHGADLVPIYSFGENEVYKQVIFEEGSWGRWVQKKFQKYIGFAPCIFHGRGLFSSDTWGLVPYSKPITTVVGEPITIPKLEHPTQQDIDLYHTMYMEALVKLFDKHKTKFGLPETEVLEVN

Row | IC50 | Structure (SMILES)
1 | 41 nM | CC(C)n1nc(-c2cccc(OC(F)F)c2)c2ncc(C(=O)NC(CO)C(F)(F)F)cc21 (racemic) [Example 52, 3-(3-(difluoromethoxy)phenyl)-1-isopropyl-N-(1,1,1-trifluoro-3-hydroxypropan-2-yl)-1H-pyrazolo[4,3-b]pyridine-6-carboxamide]
2 | 19 nM | CC(C)n1nc(-c2cccc(OC(F)F)c2)c2ncc(C(=O)NC3(CO)CCOC3)cc21 (single isomer, unassigned) [Example 39a, 3-[3-(difluoromethoxy)phenyl]-N-[3-(hydroxymethyl)tetrahydrofuran-3-yl]-1-isopropyl-pyrazolo[4,3-b]pyridine-6-carboxamide]
3 | 38 nM | CC(C)n1nc(-c2cccc(OC(F)F)c2)c2ncc(C(=O)NC3(CO)CCOC3)cc21 (single isomer, unassigned) [Example 39b, 3-[3-(difluoromethoxy)phenyl]-N-[3-(hydroxymethyl)tetrahydrofuran-3-yl]-1-isopropyl-pyrazolo[4,3-b]pyridine-6-carboxamide]
4 | 520 nM | CC(O)C(C)NC(=O)c1cnc2c(-c3cccc(OC(F)F)c3)nn(C(C)C)c2c1 (single isomer, unassigned) [Example 45b, 3-(3-(difluoromethoxy)phenyl)-N-(3-hydroxybutan-2-yl)-1-isopropyl-1H-pyrazolo[4,3-b]pyridine-6-carboxamide]
5 | 498 nM | CC(O)C(C)NC(=O)c1cnc2c(-c3cccc(OC(F)F)c3)nn(C(C)C)c2c1 (single isomer, unassigned) [Example 45c, 3-(3-(difluoromethoxy)phenyl)-N-(3-hydroxybutan-2-yl)-1-isopropyl-1H-pyrazolo[4,3-b]pyridine-6-carboxamide]
6 | 2730 nM | CC(O)C(C)NC(=O)c1cnc2c(-c3cccc(OC(F)F)c3)nn(C(C)C)c2c1 (single isomer, unassigned) [Example 45d, 3-(3-(difluoromethoxy)phenyl)-N-(3-hydroxybutan-2-yl)-1-isopropyl-1H-pyrazolo[4,3-b]pyridine-6-carboxamide]
7 | 15 nM | CC(C)n1nc(-c2cccc(OC(F)F)c2)c2ncc(C(=O)NC(C)(C)C(C)O)cc21 (single isomer, unassigned) [Example 46a, 3-(3-(difluoromethoxy)phenyl)-N-(3-hydroxy-2-methylbutan-2-yl)-1-isopropyl-1H-pyrazolo[4,3-b]pyridine-6-carboxamide]
8 | 13 nM | CC(C)n1nc(-c2cccc(OC(F)F)c2)c2ncc(C(=O)NC(C)(C)C(C)O)cc21 (single isomer, unassigned) [Example 46b, 3-(3-(difluoromethoxy)phenyl)-N-(3-hydroxy-2-methylbutan-2-yl)-1-isopropyl-1H-pyrazolo[4,3-b]pyridine-6-carboxamide]
9 | 1410 nM | CC(C)n1nc(-c2cccc(OC(F)F)c2)c2ncc(C(=O)NC3(C(C)(C)O)CCOC3)cc21 (single isomer, unassigned) [Example 47a, 3-(3-(difluoromethoxy)phenyl)-N-(3-(2-hydroxypropan-2-yl)tetrahydrofuran-3-yl)-1-isopropyl-1H-pyrazolo[4,3-b]pyridine-6-carboxamide]
10 | 50 nM | CC(C)n1nc(-c2cccc(OC(F)F)c2)c2ncc(C(=O)NC3(C(C)(C)O)CCOC3)cc21 (single isomer, unassigned) [Example 47b, 3-(3-(difluoromethoxy)phenyl)-N-(3-(2-hydroxypropan-2-yl)tetrahydrofuran-3-yl)-1-isopropyl-1H-pyrazolo[4,3-b]pyridine-6-carboxamide]
11 | 6.3 nM | CC(C)n1nc(-c2cccc(OC(F)F)c2)c2ncc(C(=O)NC3(C)CCOC3)cc21 (single isomer, unassigned) [Example 48a, 3-(3-(difluoromethoxy)phenyl)-1-isopropyl-N-(3-methyltetrahydrofuran-3-yl)-1H-pyrazolo[4,3-b]pyridine-6-carboxamide]
12 | 16 nM | CC(C)n1nc(-c2cccc(OC(F)F)c2)c2ncc(C(=O)NC3(C)CCOC3)cc21 (single isomer, unassigned) [Example 48b, 3-(3-(difluoromethoxy)phenyl)-1-isopropyl-N-(3-methyltetrahydrofuran-3-yl)-1H-pyrazolo[4,3-b]pyridine-6-carboxamide]
13 | 132 nM | CC(C)n1nc(-c2cccc(OC(F)F)c2)c2ncc(C(=O)NC3(C(C)O)CCOC3)cc21 (single isomer, unassigned) [Example 50a, 3-(3-(difluoromethoxy)phenyl)-N-(3-(1-hydroxyethyl)tetrahydrofuran-3-yl)-1-isopropyl-1H-pyrazolo[4,3-b]pyridine-6-carboxamide]
14 | 31 nM | CC(C)n1nc(-c2cccc(OC(F)F)c2)c2ncc(C(=O)NC3(C(C)O)CCOC3)cc21 (single isomer, unassigned) [Example 50b, 3-(3-(difluoromethoxy)phenyl)-N-(3-(1-hydroxyethyl)tetrahydrofuran-3-yl)-1-isopropyl-1H-pyrazolo[4,3-b]pyridine-6-carboxamide]
15 | 108 nM | CC(C)n1nc(-c2cccc(OC(F)F)c2)c2ncc(C(=O)NC3(C(C)O)CCOC3)cc21 (single isomer, unassigned) [Example 50c, 3-(3-(difluoromethoxy)phenyl)-N-(3-(1-hydroxyethyl)tetrahydrofuran-3-yl)-1-isopropyl-1H-pyrazolo[4,3-b]pyridine-6-carboxamide]
16 | 16 nM | CC1(NC(=O)c2cnc3c(-c4cccc(OC(F)F)c4)nn([C@@H]4COC[C@H]4O)c3c2)CS(=O)(=O)C1 (single isomer, unassigned) [Example 53a, 3-(3-(difluoromethoxy)phenyl)-1-((trans)-4-hydroxytetrahydrofuran-3-yl)-N-(3-methyl-1,1-dioxidothietan-3-yl)-1H-pyrazolo[4,3-b]pyridine-6-carboxamide]
17 | 132 nM | CC1(NC(=O)c2cnc3c(-c4cccc(OC(F)F)c4)nn([C@@H]4COC[C@H]4O)c3c2)CS(=O)(=O)C1 (single isomer, unassigned) [Example 53b, 3-(3-(difluoromethoxy)phenyl)-1-((trans)-4-hydroxytetrahydrofuran-3-yl)-N-(3-methyl-1,1-dioxidothietan-3-yl)-1H-pyrazolo[4,3-b]pyridine-6-carboxamide]
18 | 600 nM | C[C@]1(NC(=O)c2cnc3c(-c4cccc(OC(F)F)c4)nn(C4CCOC4)c3c2)CCS(=O)(=O)C1 (single isomer, unassigned) [Example 60a]
19 | 37 nM | C[C@]1(NC(=O)c2cnc3c(-c4cccc(OC(F)F)c4)nn(C4CCOC4)c3c2)CCS(=O)(=O)C1 (single isomer, unassigned) [Example 60b]
20 | 59 nM | C[C@]1(NC(=O)c2cnc3c(-c4cccc(OC(F)F)c4)nn(C4CCCOC4)c3c2)CCS(=O)(=O)C1 (single isomer, unassigned) [Example 62a]
21 | 116 nM | C[C@]1(NC(=O)c2cnc3c(-c4cccc(OC(F)F)c4)nn(C4CCCOC4)c3c2)CCS(=O)(=O)C1 (single isomer, unassigned) [Example 62b]
22 | 71 nM | CCC(C)n1nc(-c2cccc(OC(F)F)c2)c2ncc(C(=O)NC3(C)CS(=O)(=O)C3)cc21 (single isomer, unassigned) [Example 66a, 3-[3-(difluoromethoxy)phenyl]-N-(3-methyl-1,1-dioxo-thietan-3-yl)-1-sec-butyl-pyrazolo[4,3-b]pyridine-6-carboxamide]
